# Experimental data taken from PubChem BioAssay (NCI).
#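 A five-concentration, 48-hour dose response in 96-well plates underlies each endpoint, interpolated linearly between surrounding concentrations. TGI: total growth inhibition.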
# Assays:
# Test in all cases: inhibition of tumour cell growth, NCI panel, 48 h
# 786-0 renal = tested on: 786-0 renal
# A549 NSCLC = tested on: A549 NSCLC
# CAKI-1 renal = tested on: CAKI-1 renal
# CCRF-CEM leukemia = tested on: CCRF-CEM leukemia
# COLO 205 colon = tested on: COLO 205 colon
# DU-145 prostate = tested on: DU-145 prostate
# EKVX NSCLC = tested on: EKVX NSCLC
# HCC-2998 colon = tested on: HCC-2998 colon
# HCT-15 colon = tested on: HCT-15 colon
# HL-60(TB) leukemia = tested on: HL-60(TB) leukemia
# HOP-62 NSCLC = tested on: HOP-62 NSCLC
# HT29 colon = tested on: HT29 colon
# IGROV1 ovarian = tested on: IGROV1 ovarian
# K-562 leukemia = tested on: K-562 leukemia
# KM12 colon = tested on: KM12 colon
# M14 melanoma = tested on: M14 melanoma
# MALME-3M melanoma = tested on: MALME-3M melanoma
# MCF7 breast = tested on: MCF7 breast
# MDA-MB-231 breast = tested on: MDA-MB-231 breast
# MDA-N = tested on: MDA-N
# MOLT-4 leukemia = tested on: MOLT-4 leukemia
# NCI-H23 lung = tested on: NCI-H23 lung
# OVCAR-8 ovarian = tested on: OVCAR-8 ovarian
# PC-3 prostate = tested on: PC-3 prostate
# RPMI-8226 leukemia = tested on: RPMI-8226 leukemia
# RXF 393 renal = tested on: RXF 393 renal
# SF-268 CNS = tested on: SF-268 CNS
# SF-295 CNS = tested on: SF-295 CNS
# SK-MEL-28 melanoma = tested on: SK-MEL-28 melanoma
# SK-MEL-5 melanoma = tested on: SK-MEL-5 melanoma
# SK-OV-3 ovarian = tested on: SK-OV-3 ovarian
# SN12C renal = tested on: SN12C renal
# SNB-75 CNS = tested on: SNB-75 CNS
# SR leukemia = tested on: SR leukemia
# SW-620 colon = tested on: SW-620 colon
# T-47D breast = tested on: T-47D breast
# TK-10 renal = tested on: TK-10 renal
# UACC-257 melanoma = tested on: UACC-257 melanoma
# UACC-62 melanoma = tested on: UACC-62 melanoma
# A498 renal = tested on: A498 renal
# ACHN renal = tested on: ACHN renal
# BT-549 breast = tested on: BT-549 breast
# HCT-116 colon = tested on: HCT-116 colon
# HOP-92 NSCLC = tested on: HOP-92 NSCLC
# LOX IMVI melanoma = tested on: LOX IMVI melanoma
# MDA-MB-435 = tested on: MDA-MB-435
# NCI-H460 lung = tested on: NCI-H460 lung
# NCI-H522 lung = tested on: NCI-H522 lung
# OVCAR-3 ovarian = tested on: OVCAR-3 ovarian
# OVCAR-4 ovarian = tested on: OVCAR-4 ovarian
# OVCAR-5 ovarian = tested on: OVCAR-5 ovarian
# SF-539 CNS = tested on: SF-539 CNS
# SK-MEL-2 melanoma = tested on: SK-MEL-2 melanoma
# SNB-19 CNS = tested on: SNB-19 CNS
# U251 CNS = tested on: U251 CNS
# UO-31 renal = tested on: UO-31 renal
# NCI/ADR-RES ovarian = tested on: NCI/ADR-RES ovarian
structure (smiles),measurement,setting,value
N#Cc1ccc(NC(=NCC(=O)O)Nc2ccc3ccccc3c2)cc1,TGI,786-0 renal,> 10 µM
same,TGI,A549 NSCLC,> 10 µM
same,TGI,CAKI-1 renal,> 10 µM
same,TGI,CCRF-CEM leukemia,> 10 µM
same,TGI,COLO 205 colon,> 10 µM
same,TGI,DU-145 prostate,> 10 µM
same,TGI,EKVX NSCLC,> 10 µM
same,TGI,HCC-2998 colon,> 10 µM
same,TGI,HCT-15 colon,> 10 µM
same,TGI,HL-60(TB) leukemia,> 10 µM
same,TGI,HOP-62 NSCLC,> 10 µM
same,TGI,HT29 colon,> 10 µM
same,TGI,IGROV1 ovarian,> 10 µM
same,TGI,K-562 leukemia,> 10 µM
same,TGI,KM12 colon,> 10 µM
same,TGI,M14 melanoma,> 10 µM
same,TGI,MALME-3M melanoma,> 10 µM
same,TGI,MCF7 breast,> 10 µM
same,TGI,MDA-MB-231 breast,> 10 µM
same,TGI,MDA-N,> 10 µM
same,TGI,MOLT-4 leukemia,> 10 µM
same,TGI,NCI-H23 lung,> 10 µM
same,TGI,OVCAR-8 ovarian,> 10 µM
same,TGI,PC-3 prostate,> 10 µM
same,TGI,RPMI-8226 leukemia,> 10 µM
same,TGI,RXF 393 renal,> 10 µM
same,TGI,SF-268 CNS,> 10 µM
same,TGI,SF-295 CNS,> 10 µM
same,TGI,SK-MEL-28 melanoma,> 10 µM
same,TGI,SK-MEL-5 melanoma,> 10 µM
same,TGI,SK-OV-3 ovarian,> 10 µM
same,TGI,SN12C renal,> 10 µM
same,TGI,SNB-75 CNS,> 10 µM
same,TGI,SR leukemia,> 10 µM
same,TGI,SW-620 colon,> 10 µM
same,TGI,T-47D breast,> 10 µM
same,TGI,TK-10 renal,> 10 µM
same,TGI,UACC-257 melanoma,> 10 µM
same,TGI,UACC-62 melanoma,> 10 µM
C[Si](C)(C)C1=C2C(=O)c3ccccc3C(=O)C2=C([Si](C)(C)C)[C@@H]2CCCC[C@H]12,TGI,A498 renal,> 100 µM
same,TGI,A549 NSCLC,> 100 µM
same,TGI,ACHN renal,> 100 µM
same,TGI,BT-549 breast,> 100 µM
same,TGI,CAKI-1 renal,> 100 µM
same,TGI,CCRF-CEM leukemia,> 100 µM
same,TGI,COLO 205 colon,> 100 µM
same,TGI,DU-145 prostate,> 100 µM
same,TGI,EKVX NSCLC,> 100 µM
same,TGI,HCC-2998 colon,> 100 µM
same,TGI,HCT-116 colon,> 100 µM
same,TGI,HCT-15 colon,> 100 µM
same,TGI,HL-60(TB) leukemia,> 100 µM
same,TGI,HOP-92 NSCLC,> 100 µM
same,TGI,IGROV1 ovarian,> 100 µM
same,TGI,K-562 leukemia,> 100 µM
same,TGI,LOX IMVI melanoma,> 100 µM
same,TGI,M14 melanoma,> 100 µM
same,TGI,MALME-3M melanoma,> 100 µM
same,TGI,MCF7 breast,> 100 µM
same,TGI,MDA-MB-231 breast,> 100 µM
same,TGI,MDA-MB-435,> 100 µM
same,TGI,MDA-N,> 100 µM
same,TGI,MOLT-4 leukemia,> 100 µM
same,TGI,NCI-H23 lung,> 100 µM
same,TGI,NCI-H460 lung,> 100 µM
same,TGI,NCI-H522 lung,> 100 µM
same,TGI,OVCAR-3 ovarian,> 100 µM
same,TGI,OVCAR-4 ovarian,> 100 µM
same,TGI,OVCAR-5 ovarian,> 100 µM
same,TGI,PC-3 prostate,> 100 µM
same,TGI,RPMI-8226 leukemia,> 100 µM
same,TGI,RXF 393 renal,> 100 µM
same,TGI,SF-295 CNS,> 100 µM
same,TGI,SF-539 CNS,> 100 µM
same,TGI,SK-MEL-2 melanoma,> 100 µM
same,TGI,SK-MEL-28 melanoma,> 100 µM
same,TGI,SK-MEL-5 melanoma,> 100 µM
same,TGI,SK-OV-3 ovarian,> 100 µM
same,TGI,SN12C renal,> 100 µM
same,TGI,SNB-19 CNS,> 100 µM
same,TGI,SR leukemia,> 100 µM
same,TGI,SW-620 colon,> 100 µM
same,TGI,T-47D breast,> 100 µM
same,TGI,TK-10 renal,> 100 µM
same,TGI,U251 CNS,> 100 µM
same,TGI,UACC-257 melanoma,> 100 µM
same,TGI,UACC-62 melanoma,> 100 µM
same,TGI,UO-31 renal,> 100 µM
O=c1[nH]/c(=C/c2ccc(OCc3ccccc3)cn2)c(=O)[nH]/c1=C/c1cccnc1,TGI,786-0 renal,> 100 µM
same,TGI,A498 renal,6.46 µM
same,TGI,A549 NSCLC,> 100 µM
same,TGI,ACHN renal,> 100 µM
same,TGI,BT-549 breast,> 100 µM
same,TGI,CAKI-1 renal,> 100 µM
same,TGI,COLO 205 colon,6.13 µM
same,TGI,DU-145 prostate,2.08 µM
same,TGI,EKVX NSCLC,> 75.2 µM
same,TGI,HCC-2998 colon,3.16 µM
same,TGI,HCT-116 colon,> 100 µM
same,TGI,HL-60(TB) leukemia,0.541 µM
same,TGI,HOP-62 NSCLC,> 100 µM
same,TGI,HOP-92 NSCLC,> 100 µM
same,TGI,HT29 colon,> 100 µM
same,TGI,KM12 colon,> 36.8 µM
same,TGI,LOX IMVI melanoma,> 100 µM
same,TGI,M14 melanoma,> 22.8 µM
same,TGI,MALME-3M melanoma,> 27.6 µM
same,TGI,MCF7 breast,> 100 µM
same,TGI,MDA-MB-435,0.261 µM
same,TGI,MDA-N,0.71 µM
same,TGI,NCI-H460 lung,7.82 µM
same,TGI,NCI-H522 lung,0.588 µM
same,TGI,NCI/ADR-RES ovarian,1.33 µM
same,TGI,OVCAR-4 ovarian,> 61.5 µM
same,TGI,OVCAR-5 ovarian,> 100 µM
same,TGI,OVCAR-8 ovarian,> 100 µM
same,TGI,PC-3 prostate,> 100 µM
same,TGI,RXF 393 renal,> 100 µM
same,TGI,SF-268 CNS,> 35 µM
same,TGI,SF-295 CNS,1.65 µM
same,TGI,SK-MEL-2 melanoma,> 44.1 µM
same,TGI,SK-MEL-28 melanoma,> 100 µM
same,TGI,SK-OV-3 ovarian,> 100 µM
same,TGI,SNB-19 CNS,> 100 µM
same,TGI,SNB-75 CNS,36.8 µM
same,TGI,SR leukemia,> 100 µM
same,TGI,SW-620 colon,> 100 µM
same,TGI,T-47D breast,> 100 µM
same,TGI,TK-10 renal,> 100 µM
same,TGI,U251 CNS,> 100 µM
same,TGI,UACC-257 melanoma,> 100 µM
